# “Also recorded” adds a separate entry of the source.
# B1: S. typhimurium flagellin: hTLR5 control ligand (protein, UniProt P06179 2-495, looked up)
# Flagellin: AQVINTNSLSLLTQNNLNKSQSALGTAIERLSSGLRINSAKDDAAGQAIANRFTANIKGLTQASRNANDGISIAQTTEGALNEINNNLQRVRELAVQSANSTNSQSDLDSIQAEITQRLNEIDRVSGQTQFNGVKVLAQDNTLTIQVGANDGETIDIDLKQINSQTLGLDTLNVQQKYKVSDTAATVTGYADTTIALDNSTFKASATGLGGTDQKIDGDLKFDDTTGKYYAKVTVTGGTGKDGYYEVSVDKTNGEVTLAGGATSPLTGGLPATATEDVKNVQVANADLTEAKAALTAAGVTGTASVVKMSYTDNNGKTIDGGLAVKVGDDYYSATQNKDGSISINTTKYTADDGTSKTALNKLGGADGKTEVVSIGGKTYAASKAEGHNFKAQPDLAEAAATTTENPLQKIDAALAQVDTLRSDLGAVQNRFNSAITNLGNTVNNLTSARSRIEDSDYATEVSNMSRAQILQQAGTSVLAQANQVPQNVLSLLR
# Tests used:
# [1] = target: T1, hNOD1 (Homo sapiens, UniProt Q9Y239); assay: Human TLR/NLR agonist screening, NF-κB SEAP reporter in HEK293 cells; assay type: cell-based; settings: agonist mode, Control+ = C12-iE-DAP 1 μg/mL
# T1 construct: expressed in transfected cells; host or cells: HEK293
# T1 sequence (Q9Y239 1-953): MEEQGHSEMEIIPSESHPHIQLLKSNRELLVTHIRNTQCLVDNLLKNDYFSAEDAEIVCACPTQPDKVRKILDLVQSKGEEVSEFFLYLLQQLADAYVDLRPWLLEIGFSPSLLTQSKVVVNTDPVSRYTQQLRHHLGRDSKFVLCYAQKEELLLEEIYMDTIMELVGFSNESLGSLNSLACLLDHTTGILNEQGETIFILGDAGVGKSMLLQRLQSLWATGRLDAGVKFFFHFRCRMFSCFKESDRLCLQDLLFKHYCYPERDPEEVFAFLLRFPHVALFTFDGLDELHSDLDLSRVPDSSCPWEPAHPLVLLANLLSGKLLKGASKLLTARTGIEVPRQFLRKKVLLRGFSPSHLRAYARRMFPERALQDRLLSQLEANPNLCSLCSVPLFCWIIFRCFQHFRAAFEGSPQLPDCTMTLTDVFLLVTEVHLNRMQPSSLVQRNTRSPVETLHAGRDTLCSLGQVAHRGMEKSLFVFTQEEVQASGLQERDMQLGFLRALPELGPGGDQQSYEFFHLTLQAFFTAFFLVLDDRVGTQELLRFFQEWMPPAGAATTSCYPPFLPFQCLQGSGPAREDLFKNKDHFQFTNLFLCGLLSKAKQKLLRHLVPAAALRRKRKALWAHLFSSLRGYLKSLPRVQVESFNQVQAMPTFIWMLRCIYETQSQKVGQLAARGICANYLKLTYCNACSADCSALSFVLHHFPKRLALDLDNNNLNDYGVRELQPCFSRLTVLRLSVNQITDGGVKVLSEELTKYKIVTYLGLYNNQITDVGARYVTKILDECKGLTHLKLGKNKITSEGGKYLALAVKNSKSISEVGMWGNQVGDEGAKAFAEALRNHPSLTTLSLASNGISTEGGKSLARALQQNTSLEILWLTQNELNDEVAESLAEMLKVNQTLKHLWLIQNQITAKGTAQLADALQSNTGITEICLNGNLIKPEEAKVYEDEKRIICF
# Experimental: (§1) Toll-Like Receptor (TLR), NOD-Like Receptor (NLR) and C-Type Lectin Receptor (CLR) stimulation were tested by assessing NF-κB activation in HEK293 cells expressing a given TLR, NLR or CLR. The activity of the test articles was tested at one concentration and compared to control ligands. These steps were performed in triplicate.
# hNOD1: C12-iE-DAP at 1 μg/mL Antagonist: 100 ng/mL.
# (§2) In a 96-well plate (200 μL total volume) containing the appropriate cells (50,000-75,000 cells/well), 20 μL of the test article or the positive control ligand was added to the wells. For the antagonist assay, the test article was incubated with the cells, at 37° C. with 5% CO2, for 30 minutes prior to the addition of the positive control ligand to the wells. The media added to the wells was designed for the detection of NF-κB induced SEAP expression. After a 16-24 hr incubation the optical density (OD) was read at 650 nm on a Molecular Devices SpectraMax 340PC absorbance detector.
# (§3) The fold induction (ratio of average induced value to average non-induced value) results were as follows: […]
# [2] = system: spinal glial cells in the dorsal horn of the spinal cord; assay: Spinal glial activation (astrocytes and microglia) after intrauterine LPS, overall statements; assay type: in vivo, mouse (Balb/C)
# Text: In the model, we investigated whether intrauterine LPS administration would cause an activation of the innate immune system in the uterus, replicating the inflammation often seen in dysmenorrhea, with possible association with pain. As inflammation is intrinsically linked with pain, we investigated whether activation of the innate immune system in the uterus would induce activation of spinal glial cells (central nervous system immune cells) in the dorsal horn of the spinal cord. Spinal glial cells include astrocytes and microglia. Activation of spinal glial cells was assessed using immunoflourescent staining with GFAP (astrocytes) or Iba1 (microglia). We then investigated if spinal glial activation is attenuated by the innate immune system blocking drugs amitriptyline and TAK-242.
# (§4) Group 1 included twelve mice with 20 μl endotoxin-free saline introduced to the uterus on the first day of estrus and the subsequent day over 3 consecutive estrous cycles. Group 2 included twelve mice with LPS (100 μg/kg) instilled in the uterus on the first day of estrus and saline injected on the subsequent day over 3 consecutive estrous cycles. Group 3 included twelve mice with LPS (100 μg/kg) mixed with amitriptyline (20 μl of a 100 μM solution, equivalent to 28 μg/kg) instilled in the uterus on the first day of estrus, and amitriptyline alone instilled on the subsequent day over 3 consecutive estrous cycles. Group 4 included 14 mice with LPS (100 μg/kg) mixed with TAK-242 (20 μl of a 100 μM solution, equivalent to 36 μg/kg) instilled on the first day of estrus and TAK-242 alone instilled on the subsequent day over 3 consecutive estrous cycles.
# Determination of spinal glial response was then assessed using immunofluorescence to confirm the validity of the experimental model.
# Determination of the ability of TLR4 antagonists to block the activation of spinal astrocytes and microglia induced by intra-uterine instillation of LPS was assessed.
# An assessment of glial activation was made using immunochemistry techniques including Ionized calcium binding adaptor molecule 1 (Iba1) expression and glial fibrillary-associated protein (GFAP) variability in the dorsal horn. Iba1 expression is a marker for microglial activation, and GFAP is a marker for astrocyte activation. The spinal cord levels chosen are consistent with the level of spinal afferent neurons associated with the pelvis, including the uterus in the mouse.
# [3] = system: spinal microglia (Iba1) in the dorsal horn of the spinal cord; assay: Spinal microglial activation (Iba1 immunofluorescence) after intrauterine LPS; assay type: in vivo, mouse (Balb/C); settings: 3 estrous cycles
# Experimental: as §4
# (§5) The investigation involved the instillation of 20 ul of an endotoxin-free 0.9% saline solution into the uterus of all animals on the first day of estrus and the subsequent day during 3 consecutive estrous cycles. Additional agents added to the saline were included according to the groups outlined below. Where LPS is administered, this was done on only 1 day per estrous cycle.
# (§6) Where amitriptyline or TAK-242 was administered, this is on both the first day of estrus and the subsequent day.
# (§7) The spinal cord was assessed using immunohistochemistry techniques across levels T10, T11, T12, T13, L1, L2, L3, L4, L5, L6, S1 and S2 for Groups 1 and 2, where T represents the thoracic segment of the spinal cord, L represents the lumbar segment of the spinal cord and S represents the sacral segment of the spinal cord.
# as §7, with “levels” for “levels T10, T11,”, “L6, S” for “L6, S1”, “Groups 3” for “Groups 1”, “and 4,” for “and 2,”, “cord. […]” for “cord.”
# [4] = system: spinal astrocytes (GFAP) in the dorsal horn of the spinal cord; assay: Spinal astrocyte activation (GFAP immunofluorescence) after intrauterine LPS; assay type: in vivo, mouse (Balb/C); settings: 3 estrous cycles
# Experimental: as §4, §5, §6, §7
# as §7, with “levels” for “levels T10, T11,”, “L6, S” for “L6, S1”, “Groups 3” for “Groups 1”, “and 4,” for “and 2,”, “cord. […]” for “cord.”
# [5] = target: T2, hTLR9 (Homo sapiens, UniProt Q9NR96); assay: Human TLR/NLR agonist screening, NF-κB SEAP reporter in HEK293 cells; assay type: cell-based; settings: agonist mode, Control+ = CpG ODN 2006 1 μg/mL
# T2 construct: expressed in transfected cells; host or cells: HEK293
# T2 sequence (Q9NR96 26-1032): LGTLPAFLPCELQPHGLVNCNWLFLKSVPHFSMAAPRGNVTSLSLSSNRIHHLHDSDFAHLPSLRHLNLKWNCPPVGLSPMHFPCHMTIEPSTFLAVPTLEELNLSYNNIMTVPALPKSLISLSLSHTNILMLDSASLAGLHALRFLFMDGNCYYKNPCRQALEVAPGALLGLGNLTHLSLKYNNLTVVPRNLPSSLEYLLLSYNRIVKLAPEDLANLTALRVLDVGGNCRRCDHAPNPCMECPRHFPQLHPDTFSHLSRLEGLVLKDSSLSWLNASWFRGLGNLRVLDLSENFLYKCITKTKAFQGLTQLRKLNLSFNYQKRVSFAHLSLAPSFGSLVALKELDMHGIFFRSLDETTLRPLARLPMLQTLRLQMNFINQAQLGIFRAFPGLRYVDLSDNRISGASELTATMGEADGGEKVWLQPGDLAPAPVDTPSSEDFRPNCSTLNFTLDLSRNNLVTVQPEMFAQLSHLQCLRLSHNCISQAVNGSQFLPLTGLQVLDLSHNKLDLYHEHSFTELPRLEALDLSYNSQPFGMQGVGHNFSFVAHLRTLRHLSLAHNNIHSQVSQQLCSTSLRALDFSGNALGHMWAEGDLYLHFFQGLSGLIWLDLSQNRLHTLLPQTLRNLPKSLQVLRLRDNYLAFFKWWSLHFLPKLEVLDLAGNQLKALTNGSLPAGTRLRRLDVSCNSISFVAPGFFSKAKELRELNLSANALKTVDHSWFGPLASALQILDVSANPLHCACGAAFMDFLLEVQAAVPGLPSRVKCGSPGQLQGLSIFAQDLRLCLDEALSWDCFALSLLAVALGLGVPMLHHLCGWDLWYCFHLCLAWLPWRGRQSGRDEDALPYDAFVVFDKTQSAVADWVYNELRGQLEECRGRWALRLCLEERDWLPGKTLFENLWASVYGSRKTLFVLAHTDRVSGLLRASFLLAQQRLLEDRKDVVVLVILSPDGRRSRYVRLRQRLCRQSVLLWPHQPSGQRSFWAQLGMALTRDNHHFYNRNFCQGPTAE
# Experimental: as §1
# hTLR9: CpG ODN 2006 at 1 μg/mL Antagonist: 500 ng/mL.
# as §2, §3
# [6] = system: mice with intrauterine LPS; assay: Facial Grimace Scale 24 hours after final LPS stimulation; assay type: in vivo, mouse (Balb/C); settings: intrauterine LPS vs saline, 24 hours after final LPS stimulation
# Experimental: as §4
# 24 hours following the final LPS stimulation mice were subjected to assessment for the presence or absence of pain. This was assessed using the following tests:
# Facial Grimace Scale: Photos of mice in their home cage will be taken, to score their facial Grimace and this was quantified and compared between groups. For further information see: http://www.nature.com/nmeth/journal/v7/n6/full/nmeth.1455.html.
# [7] = target: T3, hTLR5 (Homo sapiens, UniProt O60602); assay: Human TLR/NLR agonist screening, NF-κB SEAP reporter in HEK293 cells; assay type: cell-based; settings: agonist mode, Control+ = S. typhimurium flagellin 100 ng/mL
# T3 construct: expressed in transfected cells; host or cells: HEK293
# Experimental: as §1
# hTLR5: S. typhimurium flagellin at 100 ng/mL Antagonist: 50 ng/mL.
# as §2, §3
# [8] = intrauterine, mixed with LPS 100 μg/kg on first day of estrus and alone the subsequent day, amitriptyline 28 μg/kg, TAK-242 36 μg/kg, vs LPS
# T3 sequence (O60602 21-858): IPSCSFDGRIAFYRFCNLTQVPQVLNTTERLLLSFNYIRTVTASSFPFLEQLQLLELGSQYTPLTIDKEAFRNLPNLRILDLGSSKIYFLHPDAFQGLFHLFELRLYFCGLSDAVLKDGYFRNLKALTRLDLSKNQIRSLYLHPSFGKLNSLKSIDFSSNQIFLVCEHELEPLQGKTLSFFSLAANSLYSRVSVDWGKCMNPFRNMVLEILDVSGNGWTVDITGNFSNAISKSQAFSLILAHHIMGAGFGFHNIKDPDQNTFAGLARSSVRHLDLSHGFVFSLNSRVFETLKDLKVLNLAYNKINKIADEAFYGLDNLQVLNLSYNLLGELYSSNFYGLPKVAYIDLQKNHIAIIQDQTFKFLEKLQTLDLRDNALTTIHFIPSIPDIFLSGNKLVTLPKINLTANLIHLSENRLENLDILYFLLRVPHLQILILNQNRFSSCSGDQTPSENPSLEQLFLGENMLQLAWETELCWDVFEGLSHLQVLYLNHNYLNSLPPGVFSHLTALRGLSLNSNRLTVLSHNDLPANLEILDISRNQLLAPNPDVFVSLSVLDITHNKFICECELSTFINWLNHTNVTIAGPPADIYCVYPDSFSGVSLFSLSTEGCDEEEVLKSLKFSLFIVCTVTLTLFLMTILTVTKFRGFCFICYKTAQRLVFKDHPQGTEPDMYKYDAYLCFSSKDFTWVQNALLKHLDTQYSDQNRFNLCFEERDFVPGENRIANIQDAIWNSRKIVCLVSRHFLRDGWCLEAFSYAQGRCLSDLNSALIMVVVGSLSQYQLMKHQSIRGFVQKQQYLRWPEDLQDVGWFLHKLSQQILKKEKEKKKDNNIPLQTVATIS
molecule,measurement,setting,value
CCCCCCCCCCCC(=O)N[C@H](CCC(=O)NC(CCCC(N)C(=O)O)C(=O)O)C(=O)O (some centres unmarked) [C12-iE-DAP],Fold induction (ratio of average induced value to average non-induced value),[1],20
CCOC(=O)C1=CCCC[C@H]1S(=O)(=O)Nc1ccc(F)cc1Cl [TAK-242],spinal glial activation induced by intrauterine LPS,[2]; intrauterine co-administration with LPS,prevented; also recorded: block spinal glial activation
same,dose effective at reducing spinal glial activation,"[2]; mouse model, intrauterine administration",0.036 mg/kg
same,"microglial reactivity (Iba1 staining), impact of intrauterine LPS at multiple levels of the spinal cord",[3]; [8],reduced microglia reactivity to basal levels
same,"astrocytic reactivity (GFAP staining), impact of intrauterine LPS at multiple levels of the spinal cord",[4]; [8],reduced astrocytic reactivity to below basal levels
CpG ODN 2006,Fold induction (ratio of average induced value to average non-induced value),[5],18
lipopolysaccharide [LPS],activation of spinal glial cells (astrocytes and microglia),[2]; intra-uterine LPS,induced activation of spinal astrocytes and microglia; also recorded: activate spinal glial cells
same,Iba1 microglial staining,"[3]; intrauterine LPS 100 μg/kg once per cycle, vs saline",localised increase in Iba1 microglial staining
same,GFAP astrocyte staining,"[4]; intrauterine LPS 100 μg/kg once per cycle, vs saline controls",increase in GFAP astrocyte staining through widespread levels of the spinal cord; also recorded: substantial increase in GFAP astrocyte staining
same,presentation of Grimace behaviours,[6],significant increase in the presentation of Grimace behaviours
B1,Fold induction (ratio of average induced value to average non-induced value),[7],18
